Source: patent US20250351832A1, “PHYTOCHEMICALS AS BIOPESTICIDES AND BIOSTIMULANTS” (KAY BEE BIO ORGANICS PVT. LTD., priority 2024, published 2025)
Like-named read-outs stand apart in the source and are kept apart here.

Columns and labels:
[1] = tested on: Pomegranate Bacterial Leaf Blight (BLB-Xanthomonas axonopodis pv Punicae); assay: Field trial, pomegranate bacterial leaf blight (Ex. 99); conditions: for % Increase in yield over control / Yield: pomegranate
[2] = tested on: Cotton Bacterial Leaf Blight (BLB-Xanthomonas citri pv. Malvacearum); assay: Field trial, cotton bacterial leaf blight, Embodiment 12 (Ex. 116); conditions: for % Increase over control: cotton yield; for % Disease reduction over Control / Yield: cotton
[3] = tested on: Citrus Canker (Xanthomonas citri pv. Citri); assay: Field trial, citrus canker (Ex. 117); conditions: for % Increase in yield over control / Yield (t/ha): citrus; for Citrus Canker severity, Pre spray: pre spray (baseline)
[4] = tested on: Alternaria alternata; assay: In vitro poisoned food technique against fungus (Ex. 20); type: cell-based; conditions: […]
[5] = tested on: tomato seedlings; assay: Response of tomato plants, greenhouse growth (Ex. 30); type: in vivo
[6] = tested on: chili seedlings; assay: Response of chili plants, greenhouse growth (Ex. 31); type: in vivo
[7] = tested on: Aphid
[8] = tested on: Mite; conditions: Dose 1 ml/gm/lit.; 48 hrs
[9] = tested on: Mealy Bug; conditions: Mealy Bug on cotton leaves, dose 1 ml/gm/lit., 48 Hrs.
[10] = tested on: Helicoverpa armigera; conditions: Helicoverpa armigera on okra fruits, dose 1 ml/gm/lit., 72 Hrs.
[11] = tested on: Spodoptera litura; conditions: 72 h, 1 mL or g/L
[12] = tested on: Thrips; conditions: 48 h, 1 mL or g/L
[13] = tested on: Aphid; conditions: 48 h, 1 mL or g/L
[14] = tested on: Mite; conditions: mite on okra plants, green house, dose 1 ml/gm/lit. spray
[15] = tested on: Mealy Bug; conditions: mealy bug on cotton plants, green house, dose 1 ml/gm/lit. spray
[16] = tested on: Helicoverpa armigera; conditions: Helicoverpa armigera 3rd instar on chickpea plants, dose 1 ml/gm/lit. spray
[17] = tested on: Spodoptera litura; conditions: Spodoptera litura 3rd instar on cabbage plants, dose 1 ml/gm/lit. spray
[18] = tested on: Thrips
[19] = cited from earlier work
[20] = tested on: Spodoptera litura; assay: whole plant or invertebrate; conditions: 72 h
[21] = tested on: Thrips; assay: whole plant or invertebrate; conditions: in Gossypium hirsutum, 48 h
[22] = tested on: Aphid; assay: whole plant or invertebrate; conditions: 48 h
[23] = tomato seedlings, 10th day, dose 1 ml/gm/lit
[24] = tomato seedlings, dose 1 ml/gm/lit, 10th day
[25] = chili seedlings, dose 1 ml/gm/lit, 10th day
[26] = 48 hrs, corrected for water control
[27] = 72 hrs, corrected for water control
[28] = Table 13, descriptive, no test described
[29] = read-out: % Corrected Mortality at 48 Hrs.
[30] = read-out: % Mortality at 48 Hrs.

## [Cl-].[Cu+2].[Cu+2].[OH-].[OH-].[OH-] [Copper oxychloride]
[1]; dose 0.25%
  % Disease reduction over Control: 67.92%
  BLB severity 1st spray 3rd Day: 36.65
  BLB severity 1st spray 5th day: 30.15
  BLB severity 2nd spray 3rd Day: 26.14
  BLB severity 2nd spray 5th Day: 25.66
  % Increase in yield over control: 12.45%
  Yield: 10.75 t/ha
[2]; 1st spray, 5th Day, dose 0.25%
  cotton BLB severity: 30.00
[2]; 1st spray, 10th Day, dose 0.25%
  cotton BLB severity: 28.45
[2]; 2nd spray, 5th Day, dose 0.25%
  cotton BLB severity: 23.65
[2]; 2nd spray, 10th Day, dose 0.25%
  cotton BLB severity: 21.36
[2]; dose 0.25%
  % Increase over control: 5.41%
  % Disease reduction over Control: 69.57%
  Yield: 18.50 qtl/ha

## Copper
[3]; dose 0.25%
  % Disease reduction over Control: 71.15%
  Citrus Canker severity, 1st spray 5rd Day: 39.56
  Citrus Canker severity, 1st spray 10th day: 34.15
  Citrus Canker severity, 2nd spray 5rd day: 29.65
  Citrus Canker severity, 2nd spray 10th Day: 23.65
  % Increase in yield over control: 13.04%
  Yield (t/ha): 9.20 t/ha
  Citrus Canker severity, Pre spray: 40.52

## O=[N+]([O-])C(Br)(CO)CO [Bronopol]
[3]; dose 500 ppm
  % Disease reduction over Control: 72.62%
  Citrus Canker severity, 1st spray 5rd Day: 38.48
  Citrus Canker severity, 1st spray 10th day: 33.15
  Citrus Canker severity, 2nd spray 5rd day: 27.45
  Citrus Canker severity, 2nd spray 10th Day: 22.45
  % Increase in yield over control: 3.61%
  Yield (t/ha): 8.30 t/ha
  Citrus Canker severity, Pre spray: 41.75
[1]; dose 500 ppm
  % Disease reduction over Control: 66.68%
  BLB severity 1st spray 3rd Day: 36.68
  BLB severity 1st spray 5th day: 32.15
  BLB severity 2nd spray 3rd Day: 28.75
  BLB severity 2nd spray 5th Day: 26.65
  % Increase in yield over control: 10.36%
  Yield: 10.55 t/ha
[2]; 1st spray, 5th Day, dose 500 ppm
  cotton BLB severity: 31.33
[2]; 1st spray, 10th Day, dose 500 ppm
  cotton BLB severity: 27.10
[2]; 2nd spray, 5th Day, dose 500 ppm
  cotton BLB severity: 25.60
[2]; 2nd spray, 10th Day, dose 500 ppm
  cotton BLB severity: 23.60
[2]; dose 500 ppm
  % Increase over control: 13.79%
  % Disease reduction over Control: 66.38%
  Yield: 20.30 qtl/ha

## [Cu+2].[OH-].[OH-] [Copper Hydroxide]
[3]; dose 0.30%
  % Disease reduction over Control: 70.60%
  Citrus Canker severity, 1st spray 5rd Day: 37.65
  Citrus Canker severity, 1st spray 10th day: 33.15
  Citrus Canker severity, 2nd spray 5rd day: 28.10
  Citrus Canker severity, 2nd spray 10th Day: 24.10
  % Increase in yield over control: 13.98%
  Yield (t/ha): 9.30 t/ha
  Citrus Canker severity, Pre spray: 41.45
[1]; dose 0.30%
  % Disease reduction over Control: 61.56%
  BLB severity 1st spray 3rd Day: 35.45
  BLB severity 1st spray 5th day: 33.15
  BLB severity 2nd spray 3rd Day: 31.2
  BLB severity 2nd spray 5th Day: 30.75
  % Increase in yield over control: 16.42%
  Yield: 11.13 t/ha
[2]; 1st spray, 5th Day, dose 0.30%
  cotton BLB severity: 31.00
[2]; 1st spray, 10th Day, dose 0.30%
  cotton BLB severity: 29.75
[2]; 2nd spray, 5th Day, dose 0.30%
  cotton BLB severity: 27.45
[2]; 2nd spray, 10th Day, dose 0.30%
  cotton BLB severity: 26.45
[2]; dose 0.30%
  % Increase over control: 7.89%
  % Disease reduction over Control: 62.32%
  Yield: 19.00 qtl/ha

## CCCCC[C@H](O)CC(=O)CCc1ccc(O)c(OC)c1 [Gingerol]
[4]
  inhibition of growth at 1 mL or g/L: 51.7%
[5]
  CCI Pre: 12.65
  Plant Height Pre: 5.62 cm
  Stem Girth Pre: 1.35 mm
[5]; 120 h
  CCI 5th Day: 14.63
  Plant Height 5th Day: 6.45 cm
  Stem Girth 5th Day: 1.92 mm
[5]; 240 h
  CCI 10th Day: 16.87
  Plant Height 10th Day: 7.59 cm
  Root Length % Increase over control: 31.77%
  Stem Girth 10th Day: 2.31 mm
[5]; [23]
  Plant Height % Increase over pre on 10th Day: 35.05%
  Stem Girth % Increase over pre on 10th Day: 70.52%
[5]; [24]
  CCI % Increase over pre on 10th Day: 33.36%
  Root Length (cm) 10th Day: 4.38 cm
[6]
  CCI Pre: 9.40
  Plant Height (cm) Pre: 4.05 cm
[6]; 120 h
  CCI 5th Day: 13.02
  Plant Height (cm) 5th Day: 5.95 cm
[6]; 240 h
  CCI 10th Day: 16
  Plant Height (cm) 10th Day: 6.65 cm
  Root Lenght % Increase over control: 37.61%
[6]; [25]
  CCI % Increase over pre on 10th Day: 70.21%
  Plant Height % Increase over pre on 10th Day: 64.20%
  Root Lenght (cm) 10th Day: 3.77 cm
  Stem Girth % Increase over pre on 10th Day: 45.00%
[7]; 48 h
  Total No. of dead insect at 48 Hrs.: 6.25
[7]; Dose 1 ml/gm/lit., 48 hrs
  % Corrected Mortality at 48 Hrs.: 57.14%
  % Mortality at 48 Hrs.: 62.50%
[8]
  % Corrected Mortality at 48 Hrs.: 29.73%
  % Mortality at 48 Hrs.: 35.00%
[9]
  % Mortality at 48 Hrs.: 27.50%
[9]; corrected for water control
  % Corrected Mortality at 48 Hrs.: 23.68%
[10]
  % Mortality at 72 Hrs.: 52.50%
[10]; corrected for water control
  % Corrected Mortality at 72 Hrs.: 52.50%
[11]
  Total No. of dead insect at 72 Hrs.: 4.00
[12]
  Total No. of dead insect at 48 Hrs.: 3.75
[13]
  Total No. of dead insect at 48 Hrs.: 65.00
[14]; 48 hrs after application
  % Mortality at 48 Hrs.: 30.00%
[14]; [26]
  % Corrected Mortality at 48 Hrs.: 26.32%
[15]; 48 hrs after application
  % Mortality at 48 Hrs.: 37.50%
[15]; [26]
  % Corrected Mortality at 48 Hrs.: 30.56%
[16]; 72 hrs after application
  % Mortality at 72 Hrs.: 50.00%
[16]; [27]
  % Corrected Mortality at 72 Hrs.: 50.00%
[17]; 72 hrs after application
  % Mortality at 72 Hrs.: 37.50%
[17]; [27]
  % Corrected Mortality at 72 Hrs.: 34.21%
[18]; 48 h
  Total No. of dead insect at 48 Hrs.: 30.00
[18]; thrips on cotton plants, greenhouse, dose 1 ml/gm/lit. spray, 48 hrs after application
  % Mortality at 48 Hrs.: 30.00%
[18]; thrips on cotton plants, greenhouse, dose 1 ml/gm/lit. spray, 48 hrs, corrected for water control
  % Corrected Mortality at 48 Hrs.: 22.22%
[19]; [28]
  Antifungal Activity - Mode of action: More effective in restricting
  Antioxidant Activity - Mode of action: High antioxidant activity
  Bactericidal Activity - Mode of action: Antibacterial activity
  Insecticidal Activities - Mode of action: Exhibit repellent activity
  Nematicidal Activity - Mode of action: Suppressed root knot egg
  Virucidal Activity - Mode of action: Inhibit viral nucleic
[19]; Table 13, effect on plants, descriptive
  Phytotonic Effect: Enhanced plant
[20]; read-out: % Corrected Mortality at 72 Hrs.
  mortality at 1 mL or g/L: 36.8%
[20]; read-out: % Mortality at 72 Hrs.
  mortality at 1 mL or g/L: 40%
[21]; [29]
  mortality at 1 mL or g/L: 28.6%
[21]; [30]
  mortality at 1 mL or g/L: 37.5%
[22]; [29]
  mortality at 1 mL or g/L: 58.8%
[22]; [30]
  mortality at 1 mL or g/L: 65%
